The results in this text go back to patent US20030040476A1, “EAG gene” (priority 1999, published 2003).

The target of experiment [1] is T1, hEAG2 channel (Homo sapiens, UniProt Q8NCM2).
T1 construct: expressed in transfected cells; host or cells: Xenopus oocytes (stage V-VI), injected with synthetic RNA
T1 sequence (Q8NCM2 1-988): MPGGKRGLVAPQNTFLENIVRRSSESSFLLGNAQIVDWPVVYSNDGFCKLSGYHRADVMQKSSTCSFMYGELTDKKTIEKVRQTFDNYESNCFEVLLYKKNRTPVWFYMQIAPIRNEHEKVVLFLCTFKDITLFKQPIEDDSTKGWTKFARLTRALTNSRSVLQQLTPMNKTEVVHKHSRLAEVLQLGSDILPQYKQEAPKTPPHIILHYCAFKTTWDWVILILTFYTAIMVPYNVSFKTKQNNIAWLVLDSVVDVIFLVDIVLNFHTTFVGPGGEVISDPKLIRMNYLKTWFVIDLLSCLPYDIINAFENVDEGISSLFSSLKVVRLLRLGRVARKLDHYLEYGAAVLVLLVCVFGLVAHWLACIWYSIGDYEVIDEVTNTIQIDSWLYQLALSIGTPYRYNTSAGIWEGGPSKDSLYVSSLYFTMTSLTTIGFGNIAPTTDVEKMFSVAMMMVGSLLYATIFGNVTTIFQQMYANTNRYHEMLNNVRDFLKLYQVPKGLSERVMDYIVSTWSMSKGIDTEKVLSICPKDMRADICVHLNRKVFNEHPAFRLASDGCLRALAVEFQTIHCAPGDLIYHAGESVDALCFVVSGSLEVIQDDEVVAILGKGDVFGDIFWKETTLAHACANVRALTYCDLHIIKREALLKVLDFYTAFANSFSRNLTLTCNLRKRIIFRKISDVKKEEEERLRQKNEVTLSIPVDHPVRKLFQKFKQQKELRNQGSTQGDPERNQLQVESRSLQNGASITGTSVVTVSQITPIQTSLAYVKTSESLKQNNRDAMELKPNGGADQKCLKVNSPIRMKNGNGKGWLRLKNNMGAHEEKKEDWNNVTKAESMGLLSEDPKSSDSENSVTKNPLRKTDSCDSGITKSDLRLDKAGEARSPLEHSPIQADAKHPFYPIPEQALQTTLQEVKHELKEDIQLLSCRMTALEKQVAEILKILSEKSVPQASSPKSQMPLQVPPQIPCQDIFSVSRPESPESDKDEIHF
In words: Magnesium dependence of hEAG2 activation, two-electrode voltage clamp in Xenopus oocytes. Type of experiment: cell-based. The procedure: (§1) For Xenopus oocyte expression, the cDNA was cloned into a suitable vector containing the translation initiation sequences and the polyadenylation sequence of Xenopus b-globin. This optimizes the expression in oocytes. The template was prepared by linearization of the construct, and RNA was synthesized using the T7 promotor. The synthetic RNA was injected into stage V-VI oocytes using standard techniques (approximately 50 ng/oocyte). The currents expressed were then measured 48-96 hours after the injection using two-electrode voltage clamp.
The depencence on the holding potential of the time constant of activation was determined using a conditioning potential between −150 and −60 mV during 5 s prior to the test pulse. The time required to achieve 80% of the maximal amplitude in the test pulse was then plotted against the conditioned potential, and fitted with a Boltzmann distribution. Extracellular magnesium is known to slow down the activation of EAG1. We determined the magnesium dependence of hEAG2 using the protocol descibed above in the presence of different external magnesium concentrations. The value of Vhalf obtained from the fit was plotted against the magnesium concentration, giving a semimaximal effect of extracellular magnesium at 80 μM (FIG. 7).

Experiment [2] relates to hEAG2 channel. In words: Modulation of hEAG2 current during progesterone-induced G2-M progression in Xenopus oocytes. Type of experiment: cell-based, human. Conditions: oocytes treated with 20 μg/ml progesterone while recording; homogenous at all voltages tested. The procedure:
as §1
The modulation of hEAG2 during cell cycle was determined using the natural cell cycle arrest of oocytes in the G2 stage of the first meiotic division. The progression of the cycle through the G2-M boundary is triggered by progesterone. We have treated the oocytes with 20 μg/ml progesterone while recording the hEAG2 currents. […] Importantly, the reduction was homogenous at all voltages tested (as opposite to what happens with EAG1).

As for `[Mg+2]` [magnesium], the EC50 on hEAG2 channel [1] (hEAG2 in Xenopus oocytes, conditioning potential -150 to -60 mV for 5 s before test pulse, extracellular magnesium, read-out: apparent EC50 for the effect of magnesium (Vhalf of activation time versus Mg^2+ concentration)) stood at 80 µM. Besides, the “slowing of activation in 2 mM Mg^2+ versus 200 μM Mg^2+” value on hEAG2 channel [1] (prepulse potential -60 mV, 2 mM versus 200 μM Mg^2+) is “three times slower”.

As for `CC(=O)[C@H]1CC[C@H]2[C@@H]3CCC4=CC(=O)CC[C@]4(C)[C@H]3CC[C@]12C` [progesterone], the “effect on hEAG2 current amplitude” value in the experiment on hEAG2 channel [2] is given as “reduction of the current with time”.
